Data taken from PMC10764104, “Discovery of Molecular Glue Degraders via Isogenic Morphological Profiling” (ACS Chemical Biology, 2023).

Key:
GSPT2 = target: T1, GSPT2 (Homo sapiens, UniProt Q8IYD1+Q96SW2); assay: Western blot analysis of GSPT1 and GSPT2 degradation in RKO WT or CRBN KO cells; format: cell-based
T1 construct: endogenous in cells; host or cells: RKO WT or RKO CRBN KO
Description: (A) Structure of FL2-14 comprising fluorosulfate scaffold FL2 (black) and tail group modification 14 (blue). (B) DMSO-normalized quantitative proteomics after 16 h of treatment with FL2-14 (10 μM) in RKO WT (n = 2). […] (C) Structural alignment of AlphaFold models of GSPT1 (AF-P15170-F1-model_v4 in gray) and GSPT2 (AF-Q8IYD1-F1-model_v4 in blue). (D) Validation of GSPT2 degradation by FL2-14. […] (E) Dose–response of FL2-14 in RKO and HEK293T cells. Cells were treated with the FL2-14 (0 to 10 μM) for 16 h. (F) Degradation of GSPT2^WT or GSPT2^G566N. […]
Analysis of targeted protein degradation of GSPT1 and GSPT2 via western blot For degradation assays 800 000 RKO WT or CRBN KO cells were seeded 1 day prior to the treatment in 6 well plates.
Then, cells were treated with 10 µM of the compounds for 16 hours if not otherwise stated. Cells were harvested, lysed for 30 min at 37°C in lysis buffer (1x PBS, 1% SDS, 2 mM MgCl2, 1x Halt Protease inhibitor cocktail, 50 Units Benzonase) and cleared for 30 min at 18 000 x g at 4°C. Protein concentration was determined with the Pierce 660 nm Protein Assay using the Ionic Detergent Compatibility Reagent (Thermo Scientific). 10 µg total proteome were subjected to western blot analysis by adding 4x Bolt™ LDS Sample Buffer (Thermo Scientific). Samples were boiled at 95°C for 5 min and subjected to gel electrophoresis with Bolt™ 4‐12% Bis‐Tris Plus Gels (Thermo Scientific) with Bolt™ MES SDS Running Buffer (Thermo Scientific). Membranes were blocked with 5% fat‐free milk in TBS‐T (20 mM Tris, 150 mM NaCl, 0.1% Tween, pH 7.6) for 1 h at room temperature and washed subsequently 3x 5 min with TBS‐
T. Afterwards, they were incubated for 1 h at room temperature with either GSPT1 antibody (Abcam ab49878, rabbit, […]
rabbit, 1:10 000), CRBN (Cell Signaling Technologies, CST71810S, rabbit, 1:1000), or GAPDH (SantaCruz sc‐47724, mouse, 1:1 000). Followed by washing 3x 5 min with TBS‐T and incubation for 1 h at room temperature with either Goat ANTI‐RABBIT IgG StarBright™ Blue 700 (Bio‐Rad, #12004162, 1:10 000) or Goat anti‐Mouse IgG (H+L) Cross‐ Adsorbed Secondary Antibody, DyLight™ 800 (Bio‐Rad, STAR117D800GA, 1:10 000) fluorophore‐conjugated

RKO WT = assay: Quantitative expression proteomics to identify degradation targets; format: cell-based, human; details: 10 μM, 16 h, n = 2, and adjusted p < 0.01, over 8000 proteins quantified
Source text: We selected FL2-14 for target elucidation (circled in black in Figure 2E) based on three criteria (Table S4). First, FL2-14 has low cosine similarity with all of the CRBN-dependent controls (i.e., no thick blue edges). […] Third, it has a unique chemical structure, being the only CRBN binder with the tail group modification 14 predicted to have CRBN-dependent bioactivity (Figure 3A). To elucidate the target for FL2-14, we performed quantitative proteomics to evaluate changes in protein abundances upon treatment with FL2-14. […]
Figure 3 FL2-14 is a selective GSPT2 molecular glue degrader. […] (B) DMSO-normalized quantitative proteomics after 16 h of treatment with FL2-14 (10 μM) in RKO WT (n = 2). […]
of the sample sizes of (i.e. number of images in) RKO CRBN OE and RKO CRBN KO data. We, thus, normalized the U scores calculated to allow us to compare U scores for different treatments with varying sample sizes: […]
Comparing the treatment‐centric features of compounds predicted to have CRBN‐dependent bioactivity. […] We then retrieve the matrix of Kendall’s τ‐b correlation coefficients calculated per feature for each compound. […]
We then visualized the cosine similarities calculated on a network graph with NetworkX (https://networkx.org, version 3.1), using the spring_layout() with seed set to 500 and iterations set to 200. […]

T1 sequence (Q8IYD1 whole entry): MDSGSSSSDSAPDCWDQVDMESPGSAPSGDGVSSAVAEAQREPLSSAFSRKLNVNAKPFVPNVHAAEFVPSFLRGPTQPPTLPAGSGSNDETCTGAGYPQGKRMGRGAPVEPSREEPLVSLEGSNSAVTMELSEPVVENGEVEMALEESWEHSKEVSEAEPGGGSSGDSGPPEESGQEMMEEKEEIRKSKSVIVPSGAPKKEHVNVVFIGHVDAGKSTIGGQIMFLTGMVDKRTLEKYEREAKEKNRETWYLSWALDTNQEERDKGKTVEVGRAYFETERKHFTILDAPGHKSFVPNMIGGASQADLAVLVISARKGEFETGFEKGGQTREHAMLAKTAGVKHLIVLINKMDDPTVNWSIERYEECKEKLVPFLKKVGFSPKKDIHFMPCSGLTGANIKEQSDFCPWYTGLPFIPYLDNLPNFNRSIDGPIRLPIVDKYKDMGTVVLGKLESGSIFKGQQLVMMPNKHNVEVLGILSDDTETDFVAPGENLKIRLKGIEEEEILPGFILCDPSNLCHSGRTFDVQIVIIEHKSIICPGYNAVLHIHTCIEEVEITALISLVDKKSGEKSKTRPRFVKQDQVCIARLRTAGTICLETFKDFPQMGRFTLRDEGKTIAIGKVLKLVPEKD
T1 sequence (Q96SW2 whole entry): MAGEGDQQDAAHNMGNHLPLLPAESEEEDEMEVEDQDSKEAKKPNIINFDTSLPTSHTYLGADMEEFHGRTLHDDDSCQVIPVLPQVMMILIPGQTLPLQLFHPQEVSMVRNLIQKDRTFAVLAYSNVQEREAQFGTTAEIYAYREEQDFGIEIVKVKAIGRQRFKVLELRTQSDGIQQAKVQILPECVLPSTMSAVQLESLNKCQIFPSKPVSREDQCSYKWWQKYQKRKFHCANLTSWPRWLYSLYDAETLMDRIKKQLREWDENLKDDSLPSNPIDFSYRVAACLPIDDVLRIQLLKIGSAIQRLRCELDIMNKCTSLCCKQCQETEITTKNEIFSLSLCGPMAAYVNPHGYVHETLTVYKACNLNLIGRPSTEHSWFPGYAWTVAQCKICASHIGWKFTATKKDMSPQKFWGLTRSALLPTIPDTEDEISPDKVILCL
T1 sequence (Q16531 2-1140 partner limits assumed): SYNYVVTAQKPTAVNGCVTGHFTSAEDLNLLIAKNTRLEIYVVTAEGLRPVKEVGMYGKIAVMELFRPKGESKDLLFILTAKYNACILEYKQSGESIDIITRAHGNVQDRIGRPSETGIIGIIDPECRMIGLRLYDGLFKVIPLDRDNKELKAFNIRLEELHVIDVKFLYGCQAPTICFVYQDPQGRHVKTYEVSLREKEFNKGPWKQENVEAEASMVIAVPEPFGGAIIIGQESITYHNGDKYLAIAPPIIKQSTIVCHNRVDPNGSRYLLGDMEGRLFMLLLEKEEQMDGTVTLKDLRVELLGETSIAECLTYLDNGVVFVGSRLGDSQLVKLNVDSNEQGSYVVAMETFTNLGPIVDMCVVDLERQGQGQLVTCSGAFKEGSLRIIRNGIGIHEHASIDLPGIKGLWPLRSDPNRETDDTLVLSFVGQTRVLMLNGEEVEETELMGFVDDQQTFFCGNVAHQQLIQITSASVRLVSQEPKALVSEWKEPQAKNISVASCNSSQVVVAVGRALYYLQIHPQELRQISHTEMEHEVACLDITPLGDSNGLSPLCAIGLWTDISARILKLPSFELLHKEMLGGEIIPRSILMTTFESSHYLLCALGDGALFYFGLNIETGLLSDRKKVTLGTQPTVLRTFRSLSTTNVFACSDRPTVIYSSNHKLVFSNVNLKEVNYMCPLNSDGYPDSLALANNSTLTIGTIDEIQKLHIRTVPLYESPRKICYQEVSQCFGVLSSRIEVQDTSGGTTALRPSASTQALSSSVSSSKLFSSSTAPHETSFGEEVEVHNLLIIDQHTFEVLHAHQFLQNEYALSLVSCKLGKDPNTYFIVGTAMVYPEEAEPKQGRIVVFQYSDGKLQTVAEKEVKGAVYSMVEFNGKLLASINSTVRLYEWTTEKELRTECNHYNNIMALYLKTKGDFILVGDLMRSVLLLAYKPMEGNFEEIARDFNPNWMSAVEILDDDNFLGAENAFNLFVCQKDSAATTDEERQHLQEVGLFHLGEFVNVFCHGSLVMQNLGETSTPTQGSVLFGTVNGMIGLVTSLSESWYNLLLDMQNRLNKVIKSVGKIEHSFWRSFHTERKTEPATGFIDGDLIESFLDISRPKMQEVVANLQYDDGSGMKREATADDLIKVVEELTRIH

Structure (SMILES): CN(Cc1ncc(C2CC2)o1)S(=O)(=O)Oc1ccc(Nc2ccc3c(c2)C(=O)N(C2CCC(=O)NC2=O)C3=O)cc1 (centres unmarked) [FL2-14]
- treatment time at which GSPT2 degradation is apparent (GSPT2; 10 µM, time-course in RKO and HEK293T cells): 5 h
- GSPT2 degradation in RKO CRBN KO cells (GSPT2; RKO CRBN KO, 10 μM, 16 h): completely abrogated
- degradation of GSPT2 versus GSPT1 (Western blot) (GSPT2; RKO WT, 10 μM, 16 h): preferentially degraded GSPT2 over GSPT1
- concentration range of GSPT2 degradation (dose-response) (GSPT2; RKO, 0 to 10 μM, 16 h): submicromolar range
- proteins significantly downregulated (quantitative proteomics) (RKO WT): GSPT2, FAM83F, and ZBTB39
